In the assay the test system is Nanog gene expression in mouse ES cells constitutively expressing Nanog-Eluc. As to the kind of experiment: Luminescence imaging of Nanog-Eluc expression in ES cell colonies under FGF stimulus and FGF signal inhibitors. The following applies: FGF 10 ng/ml, medium without LIF, before inhibitor addition. It is filed as cell-based. From the text:
Mouse ES cells used in Example 1-2 were used, which is constitutively expressing Nanog-Eluc. The cells were differentiation-induced with FGF (Fibroblast Growth Factor), and then observed under condition with signal transduction inhibitor. FGF signal is a signal transduction which induces stem cell differentiation, and it has been reported that the stem cell returns from the differentiated state to the undifferentiated state by the action of an inhibitor (T. Kunath et al., Development 134, pp. 2895-2902, 2007). The preparation method of ES cells is in the same manner as in Example 1-2. […]
D-luciferin (manufactured by Promega KK: final concentration of 500 μM) was added for luminescence observation, FGF (FGFβ human, PeproTech Inc.) was added so as to have a final concentration of 10 ng/ml, and then the mouse ES cells were observed using a luminescence microscope LV200 (manufactured by Olympus Corporation). As the luminescence observation conditions, the luminescence images of the mouse ES cells were taken under 55 min exposure at 1 hour intervals, thereby observing Nanog gene expression level. […]
After the time-lapse observation, the captured images were saved, and numerical data was analyzed from the observation images using an image analysis software “AQUACOSMOS (manufactured by Hamamatsu Photonics K.K.)”, and the analyzed numerical data was shown as graph data. […]

1 substance from US20130017570A1, “METHOD FOR MONITORING STATE OF DIFFERENTIATION IN STEM CELL” (OLYMPUS CORPORATION, priority 2010, published 2013) can be followed below.

As to “FGF: Fibroblast Growth Factor (FGFβ human, PeproTech Inc.) used for differentiation induction”, the “Nanog expression (luminescence intensity) when adding FGF, expression pattern C colonies” value was “not seen”.
